Reference: patent publication US20260317310A1, “BENZO SIX-MEMBERED HETEROCYCLIC GSPT1 PROTEIN DEGRADATION AGENT AND USE THEREOF” (China Pharmaceutical University, priority 2023, published 2026)
Entries after “also recorded” stand apart in the source; their conditions may differ.

Legend:
[1] = In vivo pharmacokinetic study in rats (IV and PO); set-up: species or system rat (SD); details: rat; for bioavailability: plasma, PO 10 mg/kg (IV 2 mg/kg); for clearance rate relative to CC-90009 / half-life relative to CC-90009 / initial plasma concentration relative to CC-90009 / plasma drug exposure level relative to CC-90009: IV
Experimental: Sample collection and preparation: After SPF SD rats (male, 210-230 g, 42-48 days, RILD Liver) in a good growth state were dosed intravenously at 2 mg/kg and orally at 10 mg/kg, blood samples were collected via the orbit at different blood collection time points and transferred to centrifuge tubes containing an anticoagulant; the intravenous blood collection time points were 0.08 hours, 0.25 hours, 0.5 hours, 1 hour, 2 hours, 4 hours, 6 hours, 8 hours, and 24 hours, and the oral blood collection time points were 0.25 hours, 0.5 hours, 1 hour, 2 hours, 4 hours, 6 hours, 8 hours, and 24 hours. The blood samples were immediately centrifuged at 4° C. and 8000 rpm for 10 minutes, and the plasma was collected and stored in an ultra-low-temperature freezer at −80° C. until it was analyzed by LC-MS/MS.
Pharmacokinetic data analysis: Pharmacokinetic parameters of the compounds were calculated using pharmacokinetic software in a non-compartmental model. The peak plasma concentration (Cmax) and the time to reach the peak plasma concentration (Tmax) were taken as observation values. Parameters such as the half-life T1/2, the areas under the plasma concentration-time curve AUClast and AUCinf, the apparent volume of distribution Vss, and the clearance rate CL were determined through regression analysis of the linear terminal portion of the logarithmic plasma concentration-time curve and the linear trapezoidal rule.

[2] = biological target: T1, GSPT1 (Homo sapiens, UniProt P15170); assay: Degradation of GSPT1 in KG-1 cells (immunoblot, 200 nM, 4 h); type: cell-based; set-up: endogenous in cells; host or cells: KG-1; details: FIGS. 1 and 2
Experimental: KG-1 cells (ATCC) were grown in an IMDM culture medium (containing 20% FBS). After centrifugation and counting, the cell concentration was adjusted. The cells were plated onto 6-well plates at 10^6 cells/well, with 1350 μL per well. 150 μL of DMSO and the test compounds of the present disclosure (compound concentration: 200 nM) were added. The plates were incubated in an incubator at 37° C. with 5% CO2 for 4 hours. The cells were centrifuged, and the culture medium was discarded. PBS was added to wash the cells and then discarded. Whole cell lysates were prepared using a protease inhibitor cocktail (100×, Fude Biological), a protein phosphatase inhibitor cocktail (100×, Fude Biological), SuperNuclease (Beyotime), and a high-intensity RIPA lysis buffer (Thermo Fisher) and placed on ice for 30 minutes. After centrifugation, the cell debris precipitates were discarded, and the whole cell lysate supernatants were collected and transferred to new centrifuge tubes. After a BCA protein assay, samples were prepared using a 5× loading buffer (Thermo Fisher). […] Signals were detected using a MINICHEMI™ imaging system. […]

[3] = Metabolic stability in in vitro rat liver microsomes; type: in vitro ADME; details: NADPH, 37° C.
Excerpt: RLMs were purchased from RILD Liver.

[4] = biological target: T1, GSPT1; assay: Degradation of GSPT1 in MV4-11 cells (FIG. 1C, 1D); type: cell-based; set-up: endogenous in cells; details: FIGS. 1 and 2
[5] = system: MV411 xenograft; assay: In vivo pharmacodynamic study in MV411 acute myeloid leukemia xenograft mouse model; set-up: species or system human leukemia cells in BABL/c Nude mouse
Experimental: (§1) The human leukemia cells MV411 (Cell Bank, Chinese Academy of Sciences) used in this experiment were cultured in an IMDM culture medium supplemented with 10% FBS in an incubator containing CO2 at 37° C. Before the cells were continuously sub-cultured to the tenth generation, MV411 cells in the logarithmic growth phase were used, and the cell concentration was adjusted to 1×10^8 cells/mL with a serum-free culture medium. Each BABL/c Nude mouse (Jiangsu GemPharmatech Co., Ltd., female, 4-6 weeks old, 14-16 g) was inoculated with […] of the cell suspension by subcutaneous injection on the right dorsal side (near the axilla) under sterile conditions. When the mean tumor volume of the tumor-bearing mice reached approximately 100 mm^3, the mice were randomly divided into groups, with the tumor volume in each group being roughly the same. The day of grouping and administration was defined as day 0. The animals in each treatment group were given a compound once daily by oral gavage at 15 mg/kg, 30 mg/kg, or 60 mg/kg. The body weight and tumor volume of the animals were measured every other day.
Experimental indicator: The anti-tumor efficacy of the compounds was evaluated using the relative tumor growth inhibition rate (TGI). Tumor weight TGI (%)={1−[(final average tumor weight of experimental group)/(final average tumor weight of control group of tumor-bearing mice without administration)]}×100%. Tumor volume TGI (%)=[1−relative tumor volume of experimental group/relative tumor volume of control group of tumor-bearing mice without administration]×100%.

[6] = Body weight in MV411 xenograft mice; type: in vivo, BABL/c Nude mouse; details: A-10 15, 30, 60 mg/kg, A-42 60 mg/kg, oral
Experimental: as §1

[7] = system: 22RV1 xenograft; assay: In vivo pharmacodynamic study in 22RV1 prostate cancer xenograft mouse model; set-up: species or system 22RV1 cells in BABL/c Nude mouse
Experimental: The 22RV1 cells (Cell Bank, Chinese Academy of Sciences) used in this experiment were cultured in a 1640 culture medium supplemented with 10% FBS in an incubator containing CO2 at 37° C. Before the cells were continuously sub-cultured to the tenth generation, 22RV1 cells in the logarithmic growth phase were used, and the cell concentration was adjusted to 5×10^7 cells/mL with a serum-free culture medium. Each BABL/c Nude mouse was inoculated with […] of the cell suspension by subcutaneous injection on the right dorsal side (near the axilla) under sterile conditions. When the mean tumor volume of the tumor-bearing mice reached approximately 50-100 mm^3, the mice were randomly divided into 4 groups of 8, with the tumor volume in each group being roughly the same. The day of grouping and administration was defined as day 0. The animals in each treatment group were given a compound once daily by oral gavage at 60 mg/kg.
The body weight and tumor volume of the animals were measured every other day.
Experimental indicator: The anti-tumor efficacy of the compounds was evaluated using the relative tumor growth inhibition rate (TGI). Tumor weight TGI (%)={1−[(final average tumor weight of experimental group)/(final average tumor weight of control group of tumor-bearing mice without administration)]}×100%.

[8] = biological target: T1, GSPT1; assay: Time-dependent degradation of GSPT1 in AML cells (FIG. 2); type: cell-based; set-up: KG-1 cells (ATCC) were grown in an IMDM culture medium; endogenous in cells; host or cells: KG-1
[9] = system: KG-1 cells; assay: Antiproliferative activity against KG-1 cells (CCK8, 72 h); type: cell-based; details: Homo sapiens
Experimental: KG-1 cells in the logarithmic growth phase were diluted in a culture medium (RPMI+10% FBS) and plated onto 96-well plates at 5000 cells/well, and the plates were incubated in an incubator at 37° C. with 5% CO2 for 24 hours. 10 mM stock solutions of the test compounds of the present disclosure in DMSO were prepared and diluted with the culture medium to set 9 concentration gradients. Three replicate wells were set for each concentration. After compound addition, the plates were incubated in an incubator at 37° C. with 5% CO2 for 72 hours. The cell proliferation was assessed using the CCK8 method. The cell growth inhibition IC50 values of the compounds were determined using an enzyme labeling method. The IC50 values were calculated using GraphPad Prism 7 software.
The antiproliferative activity of the compounds against KG-1 cells is shown in Table 2, where A represents IC50<1 nM, B represents 1<IC50<10 nM, C represents 10 nM≤IC50<100 nM, D represents 100 nM≤IC50<1000 nM, and E represents IC50≥1000 nM.

[10] = 60 mg/kg once daily oral gavage

T1 sequence (P15170 whole entry): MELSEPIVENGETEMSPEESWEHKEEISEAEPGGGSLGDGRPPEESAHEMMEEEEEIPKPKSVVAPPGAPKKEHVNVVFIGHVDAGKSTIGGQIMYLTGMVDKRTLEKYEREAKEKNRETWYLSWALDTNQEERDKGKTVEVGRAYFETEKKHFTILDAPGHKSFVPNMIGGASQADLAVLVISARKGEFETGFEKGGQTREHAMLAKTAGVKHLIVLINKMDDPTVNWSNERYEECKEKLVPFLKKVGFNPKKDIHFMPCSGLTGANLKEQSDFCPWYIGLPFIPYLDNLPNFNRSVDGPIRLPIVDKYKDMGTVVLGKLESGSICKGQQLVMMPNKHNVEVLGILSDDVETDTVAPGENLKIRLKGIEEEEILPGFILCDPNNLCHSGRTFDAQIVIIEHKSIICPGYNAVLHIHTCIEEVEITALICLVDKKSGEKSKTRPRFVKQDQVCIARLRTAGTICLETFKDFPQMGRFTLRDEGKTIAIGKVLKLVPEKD

## O=C1CCC(N2Cc3cc(CNC(=O)C(F)(F)c4ccc(Cl)cc4)ccc3C2=O)C(=O)N1 (centres unmarked) [CC-90009, reference compound]
[1]
  bioavailability: 31.2 ± 9.1%

## O=C1CCC(N2Cc3cc(CNC(=O)C4=Cc5ccccc5OC4)ccc3C2=O)C(=O)N1 (centres unmarked) [Compound A-1, N-((2-(2,6-Dioxopiperidin-3-yl)-1-oxoisoindolin-5-yl)methyl)-2H-chromene-3-carboxamide]
[2]
  dependence of GSPT1 degradation on concentration and time: concentration-dependent and time-dependent; also recorded: more significant than that of CC-90009
[1]
  bioavailability: 19.3 ± 3.4%
[1]; compared to CC-90009
  clearance rate relative to CC-90009: less than that of the clinical drug CC-90009
  half-life relative to CC-90009: close to that of CC-90009
  initial plasma concentration relative to CC-90009: greatly superior to those of CC-90009
  plasma drug exposure level relative to CC-90009: greatly superior to those of CC-90009
[3]
  RLM CL: 3.75 µL/min/mg
  RLM T1/2: 6.1657 h
[4]
  dependence of GSPT1 degradation on concentration and time: concentration-dependent and time-dependent; also recorded: more significant than that of CC-90009

## O=C1CCC(N2Cc3cc(CNC(=O)C4=Cc5cc(OC(F)(F)F)ccc5OC4)ccc3C2=O)C(=O)N1 (centres unmarked) [Compound A-10, N-((2-(2,6-Dioxopiperidin-3-yl)-1-oxoisoindolin-5-yl)methyl)-6-trifluoromethoxy-2H-chromene-3-carboxamide]
[5]; 15 mg/kg once daily oral gavage
  tumor weight TGI: 20.82%
[5]; 30 mg/kg once daily oral gavage
  tumor weight TGI: 56.61%
[5]; [10]
  tumor weight TGI: 59.76%
[5]; MV411 xenograft, oral gavage, vs CC-90009
  in vivo anti-tumor effect compared to CC-90009: significantly better than that of the clinical molecule CC-90009
[6]
  weight loss in mice: no significant weight loss
[7]; [10]
  TGI: 95.10%
[7]; 22RV1 xenograft, 60 mg/kg oral gavage
  TGI compared to CC-90009 and enzalutamide: significantly better than those of the clinical molecule CC-90009 and the commercially available drug enzalutamide
[2]
  dependence of GSPT1 degradation on concentration and time: concentration-dependent
[8]
  time-dependent degradation of GSPT1: time-dependent
[1]
  bioavailability: 22.9 ± 12.6%
[1]; compared to CC-90009
  clearance rate relative to CC-90009: one third of that of CC-90009
  half-life relative to CC-90009: longer than that of CC-90009
  initial plasma concentration relative to CC-90009: much higher than that of CC-90009
  plasma drug exposure level relative to CC-90009: nearly four times that of CC-90009
[1]; oral, compared to CC-90009
  exposure level relative to CC-90009: nearly three times that of CC-90009
  peak: relatively high peak
  time to peak: relatively small time to peak
[4]
  dependence of GSPT1 degradation on concentration and time: concentration-dependent

## Cc1cc2c(cc1Cl)C=C(C(=O)NCc1ccc3c(c1)CN(C1CCC(=O)NC1=O)C3=O)CO2 (centres unmarked) [Compound A-28]
[9]
  IC50: 10 to 100 nM

## O=C1CCC(N2Cc3c(ccc(CNC(=O)C4=Cc5cc(OC(F)(F)F)ccc5OC4)c3F)C2=O)C(=O)N1 (centres unmarked) [Compound A-42, N-((2-(2,6-Dioxopiperidin-3-yl)-4-fluoro-1-oxoisoindolin-5-yl)methyl)-6-(trifluoromethoxy)-2H-chromene-3-carboxamide]
[5]; MV411 xenograft, 60 mg/kg oral gavage, vs MRT-2359
  in vivo anti-tumor effect compared to MRT-2359: comparable to that of the clinical molecule MRT-2359
[6]
  weight loss in mice: no significant weight loss
[1]
  bioavailability: 9.8 ± 1.5%
[1]; compared to CC-90009
  clearance rate relative to CC-90009: lower clearance rate
  plasma drug exposure level relative to CC-90009: fourteen times
[1]; oral, compared to CC-90009
  exposure level relative to CC-90009: four times
